Details: 101.33 kPa, Liquid; for viscosity: Concentric cylinders viscometry; for mass density: Vibrating tube method

CCCCCCCCCCCC(=O)OCC [ethyl dodecanoate]
Details	mass density [kg/m3]	viscosity [mPa·s]
283.15 K	870.3	4.335
288.15 K	866.4	3.813
293.15 K	862.4	3.38
298.15 K	858.5	3.015
303.15 K	854.6	2.707
308.15 K	850.7	2.446
313.15 K	846.8	2.22
318.15 K	842.9	2.024
323.15 K	839	1.853
328.15 K	835.1	1.704
333.15 K	831.1	1.57
338.15 K	827.2	1.453
343.15 K	823.3	1.349
348.15 K	819.4	1.254
353.15 K	815.4	1.171

CCCCCCCC/C=C\CCCCCCCC(=O)OC [methyl cis-9-octadecenoate]
Details	mass density [kg/m3]	viscosity [mPa·s]
283.15 K	881.4	8.699
288.15 K	877.7	7.452
293.15 K	874.1	6.45
298.15 K	870.4	5.634
303.15 K	866.8	4.961
308.15 K	863.1	4.401
313.15 K	859.5	3.93
318.15 K	855.9	3.531
323.15 K	852.3	3.189
328.15 K	848.7	2.894
333.15 K	845.1	2.638
338.15 K	841.5	2.416
343.15 K	837.9	2.222
348.15 K	834.3	2.05
353.15 K	830.7	1.897

CCCCCCCC/C=C\CCCCCCCC(=O)OCC [ethyl (Z)-9-octadeceneoate]
Details	mass density [kg/m3]	viscosity [mPa·s]
278.15 K	880.5	10.39
283.15 K	876.9	8.839
288.15 K	873.2	7.595
293.15 K	869.5	6.591
298.15 K	865.9	5.769
303.15 K	862.2	5.092
308.15 K	858.5	4.525
313.15 K	854.9	4.048
318.15 K	851.3	3.641
323.15 K	847.6	3.292
328.15 K	844	2.99
333.15 K	840.4	2.729
338.15 K	836.8	2.502
343.15 K	833.1	2.301
348.15 K	829.5	2.124
353.15 K	825.9	1.967
358.15 K	822.3	1.827
363.15 K	818.7	1.702

CCCCCCCCCCCCCC(=O)OC [methyl tetradecanoate]
Details	mass density [kg/m3]	viscosity [mPa·s]
298.15 K	863.7	3.982
303.15 K	859.9	3.543
308.15 K	856	3.165
313.15 K	852.2	2.845
318.15 K	848.4	2.571
323.15 K	844.6	2.334
328.15 K	840.8	2.129
333.15 K	837	1.95
338.15 K	833.1	1.793
343.15 K	829.3	1.655
348.15 K	825.5	1.532
353.15 K	821.8	1.423

CCCCCCCCCCCC(=O)OC [methyl dodecanoate]
Details	mass density [kg/m3]	viscosity [mPa·s]
283.15 K	877.7	4.068
288.15 K	873.7	3.577
293.15 K	869.8	3.167
298.15 K	865.8	2.824
303.15 K	861.8	2.536
308.15 K	857.9	2.289
313.15 K	853.9	2.078
318.15 K	850	1.894
323.15 K	846.1	1.735
328.15 K	842.1	1.595
333.15 K	838.1	1.471
338.15 K	834.2	1.362
343.15 K	830.2	1.265
348.15 K	826.2	1.178
353.15 K	822.3	1.1

CCCCCCCCCCCCCCCCCC(=O)OCC [ethyl octadecanoate]
Details	mass density [kg/m3]	viscosity [mPa·s]
313.15 K	844.8	5.082
318.15 K	841.1	4.529
323.15 K	837.5	4.057
328.15 K	833.9	3.654
333.15 K	830.3	3.307
338.15 K	826.7	3.007
343.15 K	823.1	2.744
348.15 K	819.5	2.515
353.15 K	815.9	2.313
358.15 K	812.3	2.135
363.15 K	808.7	1.978

CCCCCCCCCC(=O)OCC [ethyl decanoate]
Details	mass density [kg/m3]	viscosity [mPa·s]
283.15 K	872.5	2.896
288.15 K	868.4	2.588
293.15 K	864.3	2.326
298.15 K	860.2	2.103
303.15 K	856.2	1.911
308.15 K	852.1	1.745
313.15 K	848	1.6
318.15 K	843.9	1.473
323.15 K	839.8	1.36
328.15 K	835.7	1.259
333.15 K	831.6	1.169
338.15 K	827.5	1.089
343.15 K	823.4	1.017
348.15 K	819.2	0.9516
353.15 K	815.1	0.8929

CCCCCCCCCCCCCCCC(=O)OCC [ethyl hexadecanoate]
Details	mass density [kg/m3]	viscosity [mPa·s]
303.15 K	852.6	5.011
308.15 K	848.9	4.44
313.15 K	845.2	3.956
318.15 K	841.5	3.547
323.15 K	837.9	3.197
328.15 K	834.2	2.897
333.15 K	830.5	2.637
338.15 K	826.9	2.412
343.15 K	823.2	2.214
348.15 K	819.5	2.039
353.15 K	815.9	1.884
358.15 K	812.2	1.746
363.15 K	808.6	1.623

CCCCCCCCCC(=O)OC [methyl decanoate]
Details	mass density [kg/m3]	viscosity [mPa·s]
278.15 K	884.7	2.989
283.15 K	880.6	2.654
288.15 K	876.4	2.373
293.15 K	872.3	2.136
298.15 K	868.2	1.933
303.15 K	864.1	1.76
308.15 K	860	1.609
313.15 K	856	1.477
318.15 K	851.9	1.361
323.15 K	847.8	1.259
328.15 K	843.6	1.167
333.15 K	839.5	1.086
338.15 K	835.3	1.013
343.15 K	831.2	0.9477
348.15 K	827	0.8886
353.15 K	822.9	0.8342
358.15 K	818.7	0.786
363.15 K	814.5	0.7421

CCCCCCCCCCCCCC(=O)OCC [ethyl tetradecanoate]
Details	mass density [kg/m3]	viscosity [mPa·s]
283.15 K	868.7	6.26
288.15 K	864.8	5.43
293.15 K	861	4.749
298.15 K	857.2	4.188
303.15 K	853.4	3.721
308.15 K	849.6	3.328
313.15 K	845.8	2.993
318.15 K	842	2.706
323.15 K	838.2	2.458
328.15 K	834.5	2.242
333.15 K	830.7	2.055
338.15 K	826.9	1.889
343.15 K	823.1	1.743
348.15 K	819.4	1.614
353.15 K	815.6	1.499

CCCCC/C=C\C/C=C\CCCCCCCC(=O)OC [methyl (Z,Z)-9,12-octadecadienate]
Details	mass density [kg/m3]	viscosity [mPa·s]
278.15 K	897.2	7.466
283.15 K	893.5	6.466
288.15 K	889.9	5.655
293.15 K	886.2	4.982
298.15 K	882.5	4.428
303.15 K	878.8	3.961
308.15 K	875.2	3.567
313.15 K	871.5	3.227
318.15 K	867.9	2.936
323.15 K	864.3	2.682
328.15 K	860.7	2.461
333.15 K	857	2.266
338.15 K	853.4	2.093
343.15 K	849.8	1.94
348.15 K	846.1	1.804
353.15 K	842.5	1.682
358.15 K	838.7	–
363.15 K	835.1	–

CCCCCCCCCCCCCCCCCC(=O)OC [methyl octadecanoate]
Details	mass density [kg/m3]	viscosity [mPa·s]
313.15 K	849.8	4.986
318.15 K	846.1	4.435
323.15 K	842.5	3.965
328.15 K	838.9	3.568
333.15 K	835.3	3.225
338.15 K	831.7	2.929
343.15 K	828.1	2.672
348.15 K	824.5	2.448
353.15 K	820.9	2.25
358.15 K	817.3	2.076
363.15 K	813.7	1.922

CCCCCCCCCCCCCCCC(=O)OC [methyl hexadecanoate]
Details	mass density [kg/m3]	viscosity [mPa·s]
308.15 K	854.5	4.212
313.15 K	850.8	3.755
318.15 K	847	3.368
323.15 K	843.3	3.038
328.15 K	839.6	2.754
333.15 K	835.8	2.508
338.15 K	832.1	2.295
343.15 K	828.4	2.107
348.15 K	824.7	1.942
353.15 K	821	1.796
358.15 K	817.3	1.666
363.15 K	813.6	1.55

CCCCCCCC(=O)OC [methyl octanoate]
Details	mass density [kg/m3]	viscosity [mPa·s]
283.15 K	885.9	1.71
288.15 K	881.5	1.559
293.15 K	877.1	1.427
298.15 K	872.8	1.313
303.15 K	868.4	1.212
308.15 K	864	1.123
313.15 K	859.6	1.044
318.15 K	855.2	0.9733
323.15 K	850.8	0.9093
328.15 K	846.4	0.8518
333.15 K	841.9	0.7998
338.15 K	837.5	0.7528
343.15 K	833	0.7101
348.15 K	828.5	0.6713
353.15 K	824	0.6359

Source: the NIST ThermoML archive (doi:10.1021/je100042c)
